Publication PMC7297817, “Pharmacological Characterization of a Betaine/GABA Transporter 1 (BGT1) Inhibitor Displaying an Unusual Biphasic Inhibition Profile and Anti-seizure Effects” (Neurochemical Research, 2020)

Legend:
hBGT1 Q299L = biological target: T1, hBGT1 Q299L (Homo sapiens, UniProt P48065, Q299L); experiment: [3H]GABA uptake at hBGT1 Q299L mutant in tsA201 cells; format: cell-based; conditions: data not shown
T1 construct: expressed in transfected cells; host or cells: tsA201 (transient)
Description: The HEK-293 and Flp-In CHO cell lines stably expressing mouse (m) and human (h) GATs, respectively, have been described previously and were cultured accordingly. The tsA201 cell line was used for transient expression while the MDCK II cell line express BGT1 endogenously. Both cell lines were cultured as described. tsA201 cells were transfected with DNA constructs (8 μg per 10 cm dish if not otherwise mentioned) using 40 μL PolyFect transfection reagent according to the manufacturer’s protocol (Qiagen, Venlo, Netherlands). The DNA constructs encoding hBGT1, hGAT1-3 [36], the mutated constructs hBGT1 Q299 and hGAT3 L314Q described previously, and hBGT Y453A were synthesized and sequence validated by Genscript (NJ, USA).
The [^3H]GABA competition uptake assay was performed as previously described. A minor change, however, was introduced for uptake in MDCK II cells, in which 100 nM [^3H]GABA was used for a 15 min incubation period at 37 °C instead of 30 nM [^3H]GABA and 3 min incubation. Studies related to the inhibition curves with GABA and BPDBA at hBGT1 were obtained both with and without the presence of 10 μM ATP during the [^3H]GABA uptake assay.
The [^3H]GABA uptake data was normalized to the percentage of total uptake in the individual experiments in the presence of the lowest compound concentration or no compound present. […]

D4 = biological target: T2, D4 (Homo sapiens, UniProt P21917); experiment: NIMH PDSP radioligand binding, D4; conditions: radioligand [3H]N-methylspiperone, n=4
T2 construct: purchased NIMH Psychoactive Drug Screening Program (PDSP)

5-HT1D = biological target: T3, 5-HT1D (Homo sapiens, UniProt P28221); experiment: NIMH PDSP radioligand binding, 5-HT1D; conditions: radioligand [3H]GR125743, n=4
T3 construct: purchased NIMH Psychoactive Drug Screening Program (PDSP)

CF-1 mice = experiment: Maximal electroshock (MES) test; format: in vivo, mouse; conditions: for #Protected/#Tested: 15 min
Description: Male audiogenic-susceptible (AGS) Frings mice were obtained from an in-house breeding facility at the University of Utah (Salt Lake City, UT, USA). Male CF-1 mice for the maximal electroshock (MES) test and the subcutaneous pentylenetetrazol (s.c.PTZ) seizure threshold test were purchased from Charles River (Kingston, WA, USA). All mice were housed in a temperature, humidity, and light (on at 6:00 AM) controlled facility at the University of Utah with access to ad libitum food and water except during testing. All procedures were carried out at the University of Utah in concordance with the National Institutes of Health Guidelines for the Care and Use of Laboratory Animals and under approval from the University of Utah’s Institutional Animal Care and Use Committee. The mice were euthanized in accordance with Public Health Service policies on the humane care of laboratory animals. […] This is a model of generalised tonic–clonic seizures, and was conducted as described previously. In brief, a drop of anaesthetic/electrolyte solution (0.5% tetracaine hydrochloride in 0.9% saline) was applied to the cornea of each animal prior to placement of the silver-coated corneal electrodes. An alternating current of 50 mA (60 Hz) was delivered for 0.2 s to the cornea of the mouse using a Woodbury–Davenport stimulator. The supramaximal current applied to the cornea was sufficient to induce maximal tonic extension seizures in all non-treated mice. […] Those mice not displaying full hind limb tonic extension seizures were considered protected. Probit analysis was used to analyse the efficacy and tolerability results obtained from the dose–response studies and to calculate the median effective (ED50) dose, the median toxic dose (TD50), and the 95% confidence interval.

Alpha1B = biological target: T4, Alpha1B (Homo sapiens, UniProt P35368); experiment: NIMH PDSP radioligand binding, Alpha1B; conditions: radioligand [3H]prazosine, n=4
T4 construct: purchased NIMH Psychoactive Drug Screening Program (PDSP)
T4 sequence (P35368 whole entry): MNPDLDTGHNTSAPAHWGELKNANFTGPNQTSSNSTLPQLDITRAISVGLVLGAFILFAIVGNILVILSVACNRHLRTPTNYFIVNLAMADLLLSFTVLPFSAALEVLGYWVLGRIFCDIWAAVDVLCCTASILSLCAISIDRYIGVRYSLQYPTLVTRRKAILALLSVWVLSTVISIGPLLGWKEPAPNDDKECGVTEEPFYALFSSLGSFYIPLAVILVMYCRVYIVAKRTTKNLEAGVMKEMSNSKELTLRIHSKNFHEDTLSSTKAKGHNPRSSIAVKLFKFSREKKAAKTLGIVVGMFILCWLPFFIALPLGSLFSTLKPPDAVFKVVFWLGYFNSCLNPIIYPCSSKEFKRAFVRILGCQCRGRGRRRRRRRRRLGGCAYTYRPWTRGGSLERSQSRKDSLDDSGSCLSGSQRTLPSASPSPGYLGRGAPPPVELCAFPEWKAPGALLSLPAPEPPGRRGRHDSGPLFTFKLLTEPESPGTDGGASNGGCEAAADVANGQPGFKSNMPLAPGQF

T1 sequence (P48065 whole entry Q299L): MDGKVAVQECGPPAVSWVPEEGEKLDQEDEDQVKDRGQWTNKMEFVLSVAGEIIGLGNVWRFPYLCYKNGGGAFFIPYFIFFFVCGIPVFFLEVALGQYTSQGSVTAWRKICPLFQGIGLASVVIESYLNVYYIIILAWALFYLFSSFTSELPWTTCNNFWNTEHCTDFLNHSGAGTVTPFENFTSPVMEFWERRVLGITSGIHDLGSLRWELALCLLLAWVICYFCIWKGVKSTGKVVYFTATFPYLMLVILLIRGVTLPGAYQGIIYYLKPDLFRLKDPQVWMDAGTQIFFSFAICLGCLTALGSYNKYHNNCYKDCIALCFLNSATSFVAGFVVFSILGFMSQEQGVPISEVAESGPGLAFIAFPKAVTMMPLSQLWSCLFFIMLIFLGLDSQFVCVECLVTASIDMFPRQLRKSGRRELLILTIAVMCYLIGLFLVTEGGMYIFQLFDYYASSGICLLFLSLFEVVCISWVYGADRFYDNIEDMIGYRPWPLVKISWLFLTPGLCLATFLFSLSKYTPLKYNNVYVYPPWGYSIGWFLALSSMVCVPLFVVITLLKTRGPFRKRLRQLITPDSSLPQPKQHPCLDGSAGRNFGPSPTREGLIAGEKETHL
T3 sequence (P28221 whole entry): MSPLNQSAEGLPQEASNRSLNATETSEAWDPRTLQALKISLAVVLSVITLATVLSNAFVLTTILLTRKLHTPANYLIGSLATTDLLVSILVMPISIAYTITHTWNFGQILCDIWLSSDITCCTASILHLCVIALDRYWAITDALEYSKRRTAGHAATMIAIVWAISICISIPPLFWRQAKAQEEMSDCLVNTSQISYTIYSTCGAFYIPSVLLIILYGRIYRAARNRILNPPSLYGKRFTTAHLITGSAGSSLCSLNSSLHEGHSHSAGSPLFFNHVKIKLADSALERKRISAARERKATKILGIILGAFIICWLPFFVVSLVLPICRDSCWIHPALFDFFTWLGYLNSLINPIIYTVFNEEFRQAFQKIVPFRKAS
T2 sequence (P21917 whole entry): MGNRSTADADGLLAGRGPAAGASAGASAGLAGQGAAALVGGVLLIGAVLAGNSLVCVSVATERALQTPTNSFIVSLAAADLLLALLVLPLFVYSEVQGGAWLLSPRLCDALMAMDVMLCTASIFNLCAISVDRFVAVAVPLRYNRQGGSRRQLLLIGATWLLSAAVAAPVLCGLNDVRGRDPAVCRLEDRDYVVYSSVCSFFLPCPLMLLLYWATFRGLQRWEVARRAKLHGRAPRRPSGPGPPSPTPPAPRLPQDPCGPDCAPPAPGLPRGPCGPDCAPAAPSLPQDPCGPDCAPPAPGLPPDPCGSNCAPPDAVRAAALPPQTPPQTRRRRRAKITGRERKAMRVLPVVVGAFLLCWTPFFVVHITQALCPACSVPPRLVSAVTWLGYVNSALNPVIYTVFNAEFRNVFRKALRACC

In the case of `Cc1ccsc1C(=CCCN(C)[C@H]1CCCC[C@H]1C(=O)O)c1sccc1C` [SBV2-114, (1R,2S)-2-((4,4-bis(3-methylthiophen-2-yl)but-3-en-yl)(methyl)amino)cyclohexanecarboxylic acid], the “inhibition profile and activity at hBGT1 Q299L” value (hBGT1 Q299L) is reported as “clear biphasic inhibition profile and no significant altered activity”, the inhibition at 10 µM (D4) is reported as -5.1% and the inhibition at 10 µM (5-HT1D) is reported as 19.6%. For the same compound, the “#Protected/#Tested” value (CF-1 mice; 50 mg/kg i.p.) was 0/3, the “#Protected/#Tested” value (CF-1 mice; 100 mg/kg i.p.) was 0/4 and the “#Protected/#Tested” value (CF-1 mice; 125 mg/kg i.p.) was 2/7. For the same compound, the “#Protected/#Tested” value (CF-1 mice; 150 mg/kg i.p.) was 4/6, the “#Protected/#Tested” value (CF-1 mice; 200 mg/kg i.p.) was 4/4 and the ED50 (CF-1 mice; Mus musculus, ip) was 139 mg/kg. For the same compound, the inhibition at 10 µM (Alpha1B) was 1.9%.
